The results in this text go back to patent publication US20110124620A1, “SPHINGOSINE 1 PHOSPHATE RECEPTOR MODUATORS AND THEIR USE TO TREAT MUSCLE INFLAMMATION” (priority 2008, published 2011).

The test system of this assay is Primary Human Myotubes. As to the kind of experiment: Effect on cytokine-induced atrophy of primary human myotubes (myotube diameter). It counts as cell-based. On the procedure: In Vitro: Effect on Cytokine-Induced Atrophy of Primary Human Myotubes.
Human skeletal muscle (skMC) cells are obtained from Cambrex (#CC-2561). For experiments skMC stocks are thawed and maintained in SkBM (Lonza CC-3161) containing 20% FCS and 0.1% gentamycin at 37° C., 5% CO2. After 4-5 days cells are seeded for experiments onto six-well plates coated with matrigel (450,000/well) and grown at 37° C., 5% CO2 for one day. Cells are then washed 3× with SkBM and differentiated into myotubes with SkBM containing 1 μM SB431542 (ALK4/5 inhibitor; Sigma #S4317) for 4 days (SB431542 is removed 24 h prior cell treatment). Myotubes are then treated with test compound either in the absence or in the presence of a cytokine cocktail (TNFα 10 ng/ml, IL-1β 2 ng/ml, IFNγ 10 ng/ml) for 24 h in SkBM plus 0.1% gentamycin, washed once with CSB buffer: 80 mM pipes, […], 1 mM MgCl 6H20 and 4% PEG35000 (Fluka #94646) and fixed with 4% paraformaldehyde (Electron Microscopy Sciences #15714) in CSB for 15 min at room temperature. […] Average diameters of at least 40 myotubes are measured for each condition at three points separated by 50 μm along the length of the myotube.

As to `CCc1cc(C(C)=NOCc2ccc(C3CCCCC3)c(C(F)(F)F)c2)ccc1CN1CC(C(=O)O)C1` [Compound A, 1-{4-[1-(4-cyclohexyl-3-trifluoromethyl-benzyloxyimino)-ethyl]-2-ethyl-benzyl}-azetidine-3-carboxylic acid], the “effect on cytokine-induced atrophy (myotube diameter)” value reads like this: (Compound A 1 nM, cytokine cocktail (TNFα 10 ng/ml, IL-1β 2 ng/ml, IFNγ 10 ng/ml) for 24 h, cocktail alone gives approx. 20% decrease in myotube diameter vs vehicle control) “block almost completely the cytokine-induced atrophy”; (higher concentrations of Compound A (above 1 nM), cytokine cocktail for 24 h) “exert the same effect”.
